These results are taken from EP2518159A1, “Method for determining the neurodevelopmental toxicity of a compound in vitro” (priority 2011, dated 2012).

Holding throughout (settings): ES-D3 neural differentiation culture, exposed from day 3, harvested on day 4 (24h exposure); relative to DMSO control (1 = unchanged); 25 nM MeHg, 100 µM cyproconazole, 1000 µM valproic acid, 25 µM hexaconazole
For one data set, the system named is Car4. The data set is described as follows: Gene expression change of Car4 in neural differentiation culture of embryonic stem cells (Affymetrix microarray).
Another data set relates to Shisa6. The data set is described as follows: Gene expression change of Shisa6 in neural differentiation culture of embryonic stem cells (Affymetrix microarray).
Another data set relates to Emilin2. The data set is described as follows: Gene expression change of Emilin2 in neural differentiation culture of embryonic stem cells (Affymetrix microarray).

Method for Car4: (§1) Murine embryonic stem cells (ESC) (ES-D3, ATCC, Rockville, MD, USA) were routinely subcultured every 2-3 days and grown as a monolayer in CM supplemented with leukemia inhibiting factor (LIF) (Chemicon, Temecula, CA, USA) at a final concentration of 1000 units/ml. The cells were maintained in a humidified atmosphere at 37°C and 5% CO2.
(§2) Differentiation of ESC into the neural lineage was carried out as described earlier (Theunissen et al., 2010). In brief, stem cell suspensions (3.75×10^4 cells/ml) were placed on ice before the initiation of the culture. Drops (20µl) containing 750 cells in CM were placed onto the inner side of the lid of a 90 cm Petri dish filled with phosphate-buffered saline (PBS) (Gibco BRL, Gaithersburg, MD) and incubated at 37 °C, 90% relative humidity and 5% CO2. After 3 days of hanging drop culture embryoid bodies (EB) had formed and were subsequently transferred to 60mm bacterial Petri dishes (Greiner Bio-one, Frickenhausen, Germany) containing CM supplemented with 0.5 µM retinoic acid (RA). On day 5, EB were plated on laminin (Roche, Basel, Switzerland) coated dishes (Corning Incorporated, Corning, NY, USA) in LS medium supplemented with 2.5 ug/ml fibronectin (Invitrogen, Carlsbad, CA, USA). One day later, on day 6, the LS medium was replaced by ITS medium. On day 7, EB were washed with phosphate buffered saline (PBS) (Gibco BRL, Gaithersburg, MD, USA) and incubated in cell dissociation buffer (Gibco BRL, Gaithersburg, MD, USA) for 3 minutes. Then EB were carefully detached from each Petri dish without dissociating the EBs and the entire content was replated on poly-L-ornithine (Sigma-Aldrich, Zwijndrecht, The Netherlands) and laminin coated dish in N2 medium supplemented with 10 ng/ml basic fibroblast growth factor (bFGF) (Srtathmann-Biotec AG, Englewood, CO, USA). The N2 medium supplemented with bFGF was replaced every other day for 7 days.
(§3) Control differentiation cultures were harvested on culture days 3, 4 and 5 (8 replicates per group). Differentiation cultures were exposed to the 3 neurodevelopmental toxicants and controls from day 3 onwards and harvested on day 4 (24h exposure) (8 replicates per group). Cells (-40-50 EB/sample) were directly collected in RNA Protect (Qiagen Benelux, Venlo, The Netherlands) to stabilize RNA, and total RNA was purified using the Qiagen RNEasy Plus Mini Kit (Qiagen Benelux, Venlo, The Netherlands) following the manufacturer's instructions. RNA quantity was determined using the NanoDrop Spectophotometer (Isogen Lifescience, de Meern, The Netherlands). RNA integrity was assessed on the 2100 Bioanalyzer (Agilent, Santa Clara, CA, USA) using the RNA 6000 Nano Chip Kit (Agilent, Santa Clara, CA, USA), and good quality RNA was used for gene expression analysis (RNA integrity number (RIN) > 8.0).
Method for Emilin2: as §1, §2, §3
Method for Shisa6: as §1, §2, §3

As for `CC(C1CC1)C(O)(Cn1cncn1)c1ccc(Cl)cc1` (stereo not drawn) [Cyp, Cyproconazole], the “Ratio, gene expression change Car4” value in the data set with Car4 stood at 0.777. Also, in the data set on Shisa6, the “Ratio, gene expression change Shisa6” value came out at 1.228. The “Ratio, gene expression change Emilin2” value in the data set with Emilin2 worked out at 1.270.
`CCCCC(O)(Cn1cncn1)c1ccc(Cl)cc1Cl` (stereo not drawn) [Hex, Hexaconazole]: the “Ratio, gene expression change Car4” value with Car4 worked out at 0.936. The “Ratio, gene expression change Shisa6” value in the data set on Shisa6 came out at 1.096. In addition, in the data set on Emilin2, the “Ratio, gene expression change Emilin2” value came out at 1.185.
For the compound `[CH3][Hg][Cl]` [MeHg, Methylmercury chloride], the “Ratio, gene expression change Car4” value in the data set with Car4 is given as 0.686. The “Ratio, gene expression change Shisa6” value in the data set on Shisa6 was 1.380. In addition, the “Ratio, gene expression change Emilin2” value in the data set with Emilin2 turned out to be 1.351.
For the compound `CCCC(CCC)C(=O)[O-].[Na+]` [VPA, Valproic acid sodium salt], the “Ratio, gene expression change Car4” value in the data set with Car4 is 1.373. In the data set on Shisa6, the “Ratio, gene expression change Shisa6” value is recorded as 0.752. The “Ratio, gene expression change Emilin2” value with Emilin2 is given as 2.063.
